Test [1] concerns certain bacteria, for example, a species of acid-fast bacteria. The following applies: Chemistry Letters, 769 (1977); cited from earlier work.
The test system of a further test is B. catarrhalis W-0500. The test can be described thus: MIC, agar plate dilution method. The test is classed as cell-based. To be noted: Moraxella catarrhalis, W0500, 20 h, read-out: Antimicrobial activity (MIC), 37° C., 20 hours, SDA with 5% horse blood. The method in brief:
(§1)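 Seed cultures are prepared in STB for Staphylococcus strains and on blood agar for H. influenzae and B. catarrhalis. A 5 μl inoculum (approx. 10^6 CFU/ml) goes onto blood-supplemented agar plates, which incubate 20 hours at 37° C. before MIC determination.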

The test system of another test is B. catarrhalis W-0506. The test can be described thus: MIC, agar plate dilution method. The test is classed as cell-based. To be noted: Moraxella catarrhalis, W0506; 37° C., 20 hours, SDA with 5% horse blood; read-out: Antimicrobial activity (MIC). The method in brief: as §1
The next test deals with E. faecalis W-73. The test can be described thus: MIC, agar plate dilution method. The test is classed as cell-based. The following applies: Enterococcus faecalis, W73, 20 h, read-out: Antimicrobial activity (MIC). The method in brief:
as §1

The test system of the next test is H. influenzae Type b. Kind of test: MIC, agar plate dilution method. The test is classed as cell-based. The following applies: Haemophilus influenzae, 20 h, read-out: Antimicrobial activity (MIC), 37° C., 20 hours, SDA with 5% horse blood. The method in brief:
as §1

In another test the test system is K. pneumoniae PCI602. The test can be described thus: MIC, agar plate dilution method. The test is classed as cell-based. The following applies: Klebsiella pneumoniae, PCI602, 20 h, 37° C., SDA with 5% horse blood, read-out: Antimicrobial activity (MIC). In outline: as §1
The next test has as its system M. luteus ATCC9341. Kind of test: MIC, agar plate dilution method. The test is classed as cell-based. The following applies: Micrococcus luteus, ATCC9341; 37° C., 20 hours, SDA with 5% horse blood; read-out: Antimicrobial activity (MIC). The method in brief:
as §1

The next test relates to S. aureus 209P JC-1. Kind of test: MIC, agar plate dilution method. The test is classed as cell-based. To be noted: Staphylococcus aureus, 209P, 20 h, 37° C., 20 hours, SDA with 5% horse blood; read-out: Antimicrobial activity (MIC). The method in brief: as §1
A further test concerns S. aureus M126. Kind of test: MIC, agar plate dilution method. The test is classed as cell-based. The following applies: Staphylococcus aureus, 37° C., 20 hours, SDA with 5% horse blood, read-out: Antimicrobial activity (MIC). The method in brief:
as §1

A further test concerns S. aureus M133. Kind of test: MIC, agar plate dilution method. The test is classed as cell-based. The following applies: Staphylococcus aureus, M133, 20 h, read-out: Antimicrobial activity (MIC), 37° C., 20 hours, SDA with 5% horse blood. In outline:
as §1

Another test concerns S. aureus MS15009/pMS98. The test can be described thus: MIC, agar plate dilution method. The following applies: Staphylococcus aureus, MS15009/PMS98, 20 h, read-out: Antimicrobial activity (MIC), 37° C., 20 hours, SDA with 5% horse blood. The test is classed as cell-based. In outline: as §1
The next test relates to S. aureus MS15009/pMS99. The test can be described thus: MIC, agar plate dilution method. The test is classed as cell-based. The following applies: Staphylococcus aureus, MS15009/PMS99, 20 h, read-out: Antimicrobial activity (MIC). In outline: as §1
The test system of a further test is S. aureus MS15026. Kind of test: MIC, agar plate dilution method. The following applies: Staphylococcus aureus, 37° C., 20 hours, SDA with 5% horse blood, read-out: Antimicrobial activity (MIC). The test is classed as cell-based. In outline: as §1
In a further test the test system is S. aureus MS15027. Kind of test: MIC, agar plate dilution method. The following applies: Staphylococcus aureus, MS15027, 20 h, read-out: Antimicrobial activity (MIC), 37° C., 20 hours, SDA with 5% horse blood. The test is classed as cell-based. The method in brief: as §1
A further test concerns S. epidermidis ATCC14990. Kind of test: MIC, agar plate dilution method. The test is classed as cell-based. The following applies: Staphylococcus epidermidis, ATCC14990, 20 h, read-out: Antimicrobial activity (MIC), 37° C., 20 hours, SDA with 5% horse blood. The method in brief:
as §1

Another test relates to S. pneumoniae IP692. Kind of test: MIC, agar plate dilution method. The test is classed as cell-based. The following applies: Streptococcus pneumoniae, IP692, 20 h, 37° C., 20 hours, SDA with 5% horse blood; read-out: Antimicrobial activity (MIC). The method in brief:
(§2)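 MIC by agar plate dilution: ~10^6 CFU/ml inocula (5 μl spots) on Sensitivity disk agar with 5% horse blood, 37 °C for 20 h. Seed cultures grown in Sensitivity test broth, except Streptococcus, Branhamella and Haemophilus, which were precultured on blood agar.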

The test system of another test is S. pneumoniae Type 1. The test can be described thus: MIC, agar plate dilution method. To be noted: Streptococcus pneumoniae, TYPE1; 37° C., 20 hours, SDA with 5% horse blood; read-out: Antimicrobial activity (MIC). The test is classed as cell-based. In outline:
as §2

In a further test the test system is test strains. The test can be described thus: Antimicrobial activity in vitro, test strains overall. The test is classed as cell-based. In outline:
as §1

For the next test, the system named is Branhamella catarrhalis. Kind of test: Antimicrobial activity in vitro. The test is classed as cell-based. To be noted: vs clarithromycin. The procedure:
(§3) The effect of the first aspect of the present invention resides in the creation of a novel and useful 16-membered macrolide derivative. Antimicrobial activities of the compounds of the present invention were determined by measuring minimum inhibitory concentration (MIC). Minimum inhibitory concentration was determined by the agar plate dilution method in the following manner.
(§4) Test strains were subjected to seed culture using Sensitivity test broth (STB, Nissui Pharmaceutical) except that the strains belonging to the genus Streptococcus, Branhamella and Haemophilus were cultured on blood agar plate. A 5 μl portion of cell suspension of the test strains having about 10^6 CFU/ml was inoculated into Sensitivity disk agar (SDA, Nissui Pharmaceutical) supplemented with 5% horse blood and incubated at 37° C. for 20 hours. Then, MIC was measured. […] Antimicrobial activities in vitro of the compounds (1) and (2) are shown in Table 1, and those of the compounds (3) and (4) in Table 3.

Another test deals with Enterococcus feacalis. The test can be described thus: Antimicrobial activity in vitro. The test is classed as cell-based. To be noted: vs clarithromycin. The procedure: as §3, §4
For the next test, the system named is Haemophilus influenzae. Kind of test: Antimicrobial activity in vitro. The test is classed as cell-based. The following applies: vs clarithromycin. The procedure:
as §3, §4

Another test concerns Streptococcus pneumoniae. The test can be described thus: Antimicrobial activity in vitro. The test is classed as cell-based. To be noted: compared with MDM and LM-A7. The procedure:
as §3, §4

The test system of test [2] is drug-resistant strain of Staphylococcus. Kind of test: Antimicrobial activity in vitro. The test is classed as cell-based. To be noted: vs clarithromycin. The protocol:
as §3, §4

In test [3] the test system is clinically important Gram-positive bacteria. The test can be described thus: Antimicrobial activity / growth inhibition. The test is classed as cell-based. The protocol:
as §3, §4

Converted amounts (≈) assume the structure as drawn. “Also recorded” adds a separate entry of the source. Where only a bound is given, the exact number is not on record here.

As for `CO[C@@H]1[C@@H](O[C@@H]2O[C@H](C)[C@@H](O[C@H]3C[C@@](C)(OC)[C@@H](OC(=O)CC(C)C)[C@H](C)O3)[C@H](N(C)C)[C@H]2O)[C@@H](CC=O)C[C@@H](C)C(=O)/C=C/C=C/C[C@@H](C)OC(=O)C[C@H]1OC(C)=O` [3"-O-methylcarbomycin B], the “antimicrobial activity compared with carbomycin B” value in [1] is “higher antimicrobial activity than carbomycin B”.
`CCC(=O)O[C@H]1[C@H](C)O[C@@H](O[C@H]2[C@H](N(C)C)[C@@H](O)[C@H](O[C@H]3[C@@H](CC=O)C[C@@H](C)[C@@H](O)/C=C/C=C/C[C@@H](C)OC(=O)C[C@@H](O)[C@@H]3OC)O[C@@H]2C)C[C@@]1(C)OC` [(2), 3"-O-methylleucomycin A7]: the MIC in the test with B. catarrhalis W-0500 is 0.39 µg/mL (≈ 0.505 µM); in the test on B. catarrhalis W-0506, 0.78 µg/mL (≈ 1.01 µM); in the test with E. faecalis W-73 it was 0.39 µg/mL (≈ 0.505 µM); in the test on H. influenzae Type b, 6.25 µg/mL (≈ 8.1 µM); with K. pneumoniae PCI602 it was greater than 100 µg/mL; in the test on M. luteus ATCC9341, less than 0.025 µg/mL. Further, the MIC was 0.1 µg/mL (≈ 0.13 µM) in the test on S. aureus 209P JC-1; greater than 100 µg/mL in the test on S. aureus M126; 0.2 µg/mL (≈ 0.259 µM) in the test with S. aureus M133; 0.2 µg/mL (≈ 0.259 µM) in the test with S. aureus MS15009/pMS98; greater than 100 µg/mL with S. aureus MS15009/pMS99; greater than 100 µg/mL in the test on S. aureus MS15026. The MIC with S. aureus MS15027 is 0.2 µg/mL (≈ 0.259 µM); with S. epidermidis ATCC14990 it was 0.2 µg/mL (≈ 0.259 µM); with S. pneumoniae IP692 it was less than 0.025 µg/mL; in the test on S. pneumoniae Type 1, 0.05 µg/mL (≈ 0.0648 µM). For the same molecule, the “antimicrobial activities in vitro compared with corresponding compounds having free 3"-hydroxyl (MDM, LM-A7)” value in the test with test strains (against most of test strains) is recorded as “twice as high”. In the test with test strains (vs rokitamycin), the “antimicrobial activities in comparison with rokitamycin” value is “generally excellent except for a Gram-negative bacterium (Branhamella catarrhalis); also recorded: slightly superior to those of rokitamycin”. The “antimicrobial activity compared with clarithromycin” value is listed as “inferior to that of clarithromycin” in the test with Branhamella catarrhalis, “comparable or slightly superior activities” in the test with Enterococcus feacalis, “comparable or slightly superior activities” with Haemophilus influenzae and “definitely superior antimicrobial activity” in test [2]. Moreover, the “antimicrobial activity against Streptococcus pneumoniae” value in the test on Streptococcus pneumoniae is given as “considerably improved antimicrobial activity”. The “antimicrobial activities (in words)” value in [3] was “strong antimicrobial activities”.

Values taken from patent US5602106A, “16-membered macrolide derivatives” (priority 1993, dated 1997).
